# Experimental data taken from paper PMC7764601 (Molecules, 2020).
# Where “and” joins values, the source holds several entries; their conditions need not be identical. Equal entries are not always repeated. Marks after values point to notes of the source that are not given here.
# Columns and labels:
# Type in all cases: in vivo
# in vivo = conditions: male, albino Swiss, mouse, in vivo, ip; mice, intraperitoneal, mortality after 24 h; confidence limits in parentheses
# Description: (§1) The experiments were carried out on male albino Swiss mice (body weight 18–26 g). All of the animals were housed at constant humidity (60%) and temperature (25 °C) and kept on a 12 h light/dark cycle. Animals were fed a standard pellet diet with free access to tap water. All procedures were conducted according to Animal Care and Use Committee guidelines, and approved by the Ethical Committee of Jagiellonian University, Kraków.
# (§2) Control and experimental groups consisted of 6–8 animals each. The investigated compounds were administered intraperitoneally as a suspension in 0.5% methylcellulose in a constant volume of 10 mL/kg.
# mice [1] = assay: in vivo; conditions: ED50 of the writhing test (Table 3) relative to LD50 i.p.
# Description: as §1, §2
# mice [2] = assay: Thiopental anesthesia (thiopental-induced sleep); conditions: for Prolongation (%) of thiopental anesthesia / Duration of Anesthesia ± SEM: i.p.; for effect on duration of thiopental anesthesia (in words): mouse, in vivo; for Duration of Anesthesia ± SEM: thiopental
# From the text: The pilot biological studies for imides 9 and 11 were supplemented with the determination of the effect of the intraperitoneal administration of the test compounds on the duration of thiopental-induced sleep. The mechanism and the degree of crossing the blood–brain barrier has not been precisely defined. The observed sedative effects may indicate good penetration of compounds into the central nervous system, which, however, has not been confirmed.
# as §2
# mice [3] = assay: “Hot plate” test in mice; conditions: hot plate, mice
# Description: as §1, §2
# (§3) The statistical significance was calculated using a Student’s t-test. The ED50 values and their confidence limits were calculated according to the method of Litchfield and Wilcoxon.
# (§4) Pain reactivity was measured in two tests: “hot plate” test (according to the method of Eddy and Leimbach) and “writhing” test in mice (according to Hendershot and Forsaith).
# Animals were placed individually on the metal plate, heated to 55 ± 1 °C. The latency time (s) to the pain reaction (licking of the hind paws or jumping) was recorded by a stop-watch. A cutoff time of 45 s was used to prevent tissue damage.
# mice [4] = assay: “Writhing” test in mice (phenylbenzoquinone); conditions: for ED50: Mus musculus, ip, read-out: ED50 (mg/kg) ± SEM, writhing test; for ED50 / ED50 (mg/kg) ± SEM, writhing test: confidence limits in parentheses; for ED50 (mg/kg) ± SEM, writhing test / Mean no. of writhing ± SEM: i.p.
# Description: as §1, §2, §3, §4
# Then, after 25 min, the irritant (phenylbenzoquinone, 0.02% solution, ethanol-water, 5:95) was also administered intraperitoneally in a constant volume of 0.25 mL. Five min after the application of the irritant,a 10 min long period of observation started, in which the number of writhing episodes was counted.
# The analgesic effect of individual doses was expressed in percent:(1) % Analgesic effect=100−∑ of writing incidents in experimental group/∑ of writhing incidents in control group×100
# mice [5] = assay: Spontaneous locomotor activity in mice (photoresistor actometers); conditions: for ED50: confidence limits in parentheses, read-out: ED50 (mg/kg) ± SEM, spontaneous locomotor activity; for Number of impulses ± SEM (30min): i.p.
# Description: as §1, §2
# Spontaneous locomotor activity in mice was measured in circular photoresistoractometers (32 cm in diameter). […] Thirty minutes after the injection of the investigated compounds, mice were placed in the actometers for 30 min. Each crossing of the light beam was recorded automatically. The amount of impulses was noted after 30 min.
# [6] = Mus musculus, ip, 0.5 h, dose 100 mg/kg, read-out: Prolonged Time (%)
# [7] = Mus musculus, ip, 0.5 h, dose 200 mg/kg, read-out: Prolonged Time (%)
# [8] = Mus musculus, ip, dose 25 mg/kg, read-out: Degree of motor inhibition (%)
# [9] = Mus musculus, ip, dose 50 mg/kg, read-out: Degree of motor inhibition (%)
# [10] = Mus musculus, ip, dose 100 mg/kg, read-out: Degree of motor inhibition (%)
# [11] = Mus musculus, ip, dose 200 mg/kg, read-out: Degree of motor inhibition (%)
compound,measurement,setting,value
COc1nc(C)cc2c1C(=O)N(CCN1CCN(c3ccccc3)CC1)C2=O [Compound 9],LD50 at 24 h,in vivo,1500 mg/kg
same,analgesic ED50 as fraction of LD50,mice [1],≈ 1/408
same,Prolongation (%) of thiopental anesthesia,mice [2]; dose 9.375 mg/kg,34.8%
same,Prolongation (%) of thiopental anesthesia,mice [2]; dose 18.75 mg/kg,96.5 * % and 96.5%
same,Prolongation (%) of thiopental anesthesia,mice [2]; dose 37.5 mg/kg,157.1 ** % and 157.1%
same,effect on duration of thiopental anesthesia (in words),mice [2],extended the duration of thiopental anesthesia
same,Duration of Anesthesia ± SEM,mice [2]; dose 9.375 mg/kg,69.4 ± 12 min
same,Duration of Anesthesia ± SEM,mice [2]; dose 18.75 mg/kg,101.2 ± 28.4 min
same,Duration of Anesthesia ± SEM,mice [2]; dose 37.5 mg/kg,132.4 ± 27.8 min
same,change in vivo at 75 mg/kg,"mice [3]; Mus musculus, ip, 0.5 h, dose 75 mg/kg, read-out: Prolonged Time (%)",55%
same,change in vivo at 150 mg/kg,"mice [3]; Mus musculus, ip, 0.5 h, dose 150 mg/kg, read-out: Prolonged Time (%)",102%
same,change in vivo at 300 mg/kg,"mice [3]; Mus musculus, ip, 0.5 h, dose 300 mg/kg, read-out: Prolonged Time (%)",105%
same,Time of Reaction to Pain Stimulus (s) ± SEM,mice [3]; dose 75 mg/kg,30.3 ± 2.7 s
same,Time of Reaction to Pain Stimulus (s) ± SEM,mice [3]; dose 150 mg/kg,39.2 ± 5 s
same,Time of Reaction to Pain Stimulus (s) ± SEM,mice [3]; dose 300 mg/kg,40.0 ± 4.4 s
same,ED50,mice [4],3.25 mg/kg
same,"ED50 (mg/kg) ± SEM, writhing test",mice [4],3.67 mg/kg
same,Mean no. of writhing ± SEM,mice [4]; dose 4.68 mg/kg,22.0 ± 4.6
same,Mean no. of writhing ± SEM,mice [4]; dose 9.375 mg/kg,9.8 ± 1.8
same,Mean no. of writhing ± SEM,mice [4]; dose 18.75 mg/kg,5.0 ± 2.0
same,Mean no. of writhing ± SEM,mice [4]; dose 37.5 mg/kg,1.2 ± 0.7
same,ED50,"mice [5]; Mus musculus, ip",18.8 mg/kg
same,inhibition at 4.68 mg/kg,"mice [5]; Mus musculus, ip, dose 4.68 mg/kg, read-out: Degree of motor inhibition (%)",22.6%
same,inhibition at 9.37 mg/kg,"mice [5]; Mus musculus, ip, dose 9.37 mg/kg (Table 9), read-out: % Inh. of locomotor activity",42.8%
same,inhibition at 18.75 mg/kg,"mice [5]; Mus musculus, ip, dose 18.75 mg/kg, read-out: Degree of motor inhibition (%)",45.9%
same,inhibition at 37.5 mg/kg,"mice [5]; Mus musculus, ip, dose 37.5 mg/kg, read-out: Degree of motor inhibition (%)",67.2%
same,Number of impulses ± SEM (30min),mice [5]; dose 18.75 mg/kg,244 ± 45
same,Number of impulses ± SEM (30min),mice [5]; dose 37.5 mg/kg,148 ± 32
same,Number of impulses ± SEM (30min),mice [5]; dose 93.75 mg/kg (as printed in Table S2),258 ± 47.4
COc1ccccc1N1CCN(CCN2C(=O)c3cc(C)nc(OC)c3C2=O)CC1 [Compound 11],LD50 at 24 h,in vivo,> 2000 mg/kg
same,Prolongation (%) of thiopental anesthesia,mice [2]; dose 12.5 mg/kg,36.3%
same,Prolongation (%) of thiopental anesthesia,mice [2]; dose 25 mg/kg,16.11%
same,Prolongation (%) of thiopental anesthesia,mice [2]; dose 50 mg/kg,140.8 *** % and 140.8%
same,effect on duration of thiopental anesthesia (in words),mice [2],extended the duration of thiopental anesthesia
same,Duration of Anesthesia ± SEM,mice [2]; dose 12.5 mg/kg,70.2 ± 24 min
same,Duration of Anesthesia ± SEM,mice [2]; dose 25 mg/kg,50.8 ± 14.2 min
same,Duration of Anesthesia ± SEM,mice [2]; dose 50 mg/kg,124 ± 16.2 min
same,change in vivo at 100 mg/kg,mice [3]; [6],23%
same,change in vivo at 200 mg/kg,mice [3]; [7],50.7%
same,change in vivo at 400 mg/kg,"mice [3]; Mus musculus, ip, 0.5 h, dose 400 mg/kg, read-out: Prolonged Time (%)",105%
same,Time of Reaction to Pain Stimulus (s) ± SEM,mice [3]; dose 100 mg/kg,24.0 ± 5.0 s
same,Time of Reaction to Pain Stimulus (s) ± SEM,mice [3]; dose 200 mg/kg,29.4 ± 5.0 s
same,Time of Reaction to Pain Stimulus (s) ± SEM,mice [3]; dose 400 mg/kg,40.0 ± 8.5 s
same,ED50,mice [4],3.67 mg/kg
same,"ED50 (mg/kg) ± SEM, writhing test",mice [4],3.25 mg/kg
same,Mean no. of writhing ± SEM,mice [4]; dose 3.125 mg/kg,17.7 ± 2.4
same,Mean no. of writhing ± SEM,mice [4]; dose 6.25 mg/kg,6.0 ± 2.8
same,Mean no. of writhing ± SEM,mice [4]; dose 12.5 mg/kg,4.3 ± 1.1
same,Mean no. of writhing ± SEM,mice [4]; dose 50 mg/kg,1.4 ± 0.6
same,ED50,"mice [5]; Mus musculus, ip",19.7 mg/kg
same,inhibition at 6.25 mg/kg,"mice [5]; Mus musculus, ip, dose 6.25 mg/kg, read-out: Degree of motor inhibition (%)",28.2%
same,inhibition at 12.5 mg/kg,"mice [5]; Mus musculus, ip, dose 12.5 mg/kg, read-out: Degree of motor inhibition (%)",55.4%
same,inhibition at 25 mg/kg,mice [5]; [8],55.9%
same,inhibition at 50 mg/kg,mice [5]; [9],68.7%
same,Number of impulses ± SEM (30min),mice [5]; dose 6.25 mg/kg,324 ± 49
same,Number of impulses ± SEM (30min),mice [5]; dose 12.5 mg/kg,201 ± 74
same,Number of impulses ± SEM (30min),mice [5]; dose 25 mg/kg,199.1 ± 48
same,Number of impulses ± SEM (30min),mice [5]; dose 50 mg/kg,141 ± 63
CCOc1nc(C)cc2c1C(=O)N(CN1CCN(c3cccc(Cl)c3)CC1)C2=O [Compound 14],LD50 at 24 h,in vivo,> 2000 mg/kg
same,change in vivo at 100 mg/kg,mice [3]; [6],2.32%
same,change in vivo at 200 mg/kg,mice [3]; [7],16.8%
same,Time of Reaction to Pain Stimulus (s) ± SEM,mice [3]; dose 100 mg/kg,17.6 ± 2.4 s
same,Time of Reaction to Pain Stimulus (s) ± SEM,mice [3]; dose 200 mg/kg,20.1 ± 2.3 s
same,ED50,mice [4],18.4 mg/kg
same,Mean no. of writhing ± SEM,mice [4]; dose 12.5 mg/kg,15.1 ± 4.2
same,Mean no. of writhing ± SEM,mice [4]; dose 25 mg/kg,9.1 ± 0.8
same,Mean no. of writhing ± SEM,mice [4]; dose 50 mg/kg,5.9 ± 1.9
same,Mean no. of writhing ± SEM,mice [4]; dose 100 mg/kg,1.8 ± 0.3
same,ED50,"mice [5]; Mus musculus, ip",98 ± 13.3 mg/kg
same,inhibition at 25 mg/kg,mice [5]; [8],10.7%
same,inhibition at 50 mg/kg,mice [5]; [9],3.5%
same,inhibition at 100 mg/kg,mice [5]; [10],52.4%
same,inhibition at 200 mg/kg,mice [5]; [11],66%
same,Number of impulses ± SEM (30min),mice [5]; dose 25 mg/kg,394 ± 70
same,Number of impulses ± SEM (30min),mice [5]; dose 50 mg/kg,280 ± 46
same,Number of impulses ± SEM (30min),mice [5]; dose 100 mg/kg,210 ± 40
same,Number of impulses ± SEM (30min),mice [5]; dose 200 mg/kg,150 ± 48
COc1nc(C)cc2c1C(=O)N(CN1CCN(c3ccccc3Cl)CC1)C2=O [Compound 15],LD50 at 24 h,in vivo,> 2000 mg/kg
same,change in vivo at 200 mg/kg,mice [3]; [7],15.7%
same,Time of Reaction to Pain Stimulus (s) ± SEM,mice [3]; dose 100 mg/kg,17.0 ± 2.8 s
same,Time of Reaction to Pain Stimulus (s) ± SEM,mice [3]; dose 200 mg/kg,19.9 ± 3.9 s
same,ED50,mice [4],19.2 ± 2.14 mg/kg
same,Mean no. of writhing ± SEM,mice [4]; dose 12.5 mg/kg,17.2 ± 3.2
same,Mean no. of writhing ± SEM,mice [4]; dose 25 mg/kg,9.4 ± 2.2
same,Mean no. of writhing ± SEM,mice [4]; dose 50 mg/kg,2.9 ± 1.9
same,Mean no. of writhing ± SEM,mice [4]; dose 100 mg/kg,1.4 ± 0.4
same,ED50,"mice [5]; Mus musculus, ip",89.1 ± 4.46 mg/kg
same,inhibition at 25 mg/kg,mice [5]; [8],9.52%
same,inhibition at 50 mg/kg,mice [5]; [9],42.6%
same,inhibition at 100 mg/kg,mice [5]; [10],54%
same,inhibition at 200 mg/kg,mice [5]; [11],65.5%
same,Number of impulses ± SEM (30min),mice [5]; dose 25 mg/kg,399 ± 71
same,Number of impulses ± SEM (30min),mice [5]; dose 50 mg/kg,253 ± 48
same,Number of impulses ± SEM (30min),mice [5]; dose 100 mg/kg,203 ± 39
same,Number of impulses ± SEM (30min),mice [5]; dose 200 mg/kg,152 ± 34
